From ChEMBL document CHEMBL1154532, “Antibacterial alkoxybenzamide inhibitors of the essential bacterial cell division protein FtsZ” (2009)
Converted amounts (≈) assume the structure as drawn.

Legend:
Bacillus subtilis = test: Antibacterial activity against Bacillus subtilis 168; assay type: functional
[1] = biological target: T1, Cell division protein FtsZ (Bacillus subtilis (strain 168)) (UniProt P17865); test: Inhibition of FtsZ-mediated cell division in Bacillus subtilis 168 assessed as drug concentration required to produce filamentation
T1 sequence (whole entry): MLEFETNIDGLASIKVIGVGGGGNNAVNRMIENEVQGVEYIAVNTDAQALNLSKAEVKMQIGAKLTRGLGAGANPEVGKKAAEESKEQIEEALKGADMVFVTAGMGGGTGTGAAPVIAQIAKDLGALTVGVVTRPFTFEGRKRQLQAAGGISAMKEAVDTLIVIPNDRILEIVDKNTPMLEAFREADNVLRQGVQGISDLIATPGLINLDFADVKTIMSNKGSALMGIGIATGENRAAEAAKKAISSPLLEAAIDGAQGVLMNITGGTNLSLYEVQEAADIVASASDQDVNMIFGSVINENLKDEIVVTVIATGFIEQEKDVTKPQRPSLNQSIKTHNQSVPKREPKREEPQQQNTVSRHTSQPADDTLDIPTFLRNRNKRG

Staphylococcus aureus [2] = test: Antibacterial activity against Staphylococcus aureus ATCC 29213; assay type: functional
Staphylococcus aureus [3] = test: Antibacterial activity against methicillin-susceptible Staphylococcus aureus ATCC 601055; assay type: functional
Staphylococcus aureus [4] = test: Antibacterial activity against Staphylococcus aureus ATCC 601055 with FtsZ […] point mutation; assay type: functional
Staphylococcus aureus [5] = test: Antibacterial activity against Staphylococcus aureus ATCC 601055 with FtsZ P300R point mutation; assay type: functional
Staphylococcus aureus [6] = test: Antibacterial activity against methicillin-resistant Staphylococcus aureus ATCC 607004; assay type: functional
Staphylococcus aureus [7] = test: Antibacterial activity against methicillin-resistant Staphylococcus aureus ATCC 700698; assay type: functional
Staphylococcus aureus [8] = test: Antibacterial activity against methicillin-susceptible Staphylococcus aureus ATCC 25923; assay type: functional
Staphylococcus aureus [9] = test: Antibacterial activity against […] Staphylococcus aureus ATCC 29213; assay type: functional
Staphylococcus aureus [10] = test: Antibacterial activity against methicillin-resistant Staphylococcus aureus ATCC 43300; assay type: functional
Staphylococcus aureus [11] = test: Antibacterial activity against methicillin-susceptible Staphylococcus aureus ATCC 19636; assay type: functional
[12] = system: Staphylococcus epidermidis; test: Antibacterial activity against Staphylococcus epidermidis ATCC 12228; assay type: functional
[13] = biological target: T2, Cell division protein FtsZ (Staphylococcus aureus) (UniProt P0A031); test: Inhibition of FtsZ-mediated cell division in Staphylococcus aureus ATCC 29213 assessed as drug concentration required to produce ballooning
T2 sequence (whole entry): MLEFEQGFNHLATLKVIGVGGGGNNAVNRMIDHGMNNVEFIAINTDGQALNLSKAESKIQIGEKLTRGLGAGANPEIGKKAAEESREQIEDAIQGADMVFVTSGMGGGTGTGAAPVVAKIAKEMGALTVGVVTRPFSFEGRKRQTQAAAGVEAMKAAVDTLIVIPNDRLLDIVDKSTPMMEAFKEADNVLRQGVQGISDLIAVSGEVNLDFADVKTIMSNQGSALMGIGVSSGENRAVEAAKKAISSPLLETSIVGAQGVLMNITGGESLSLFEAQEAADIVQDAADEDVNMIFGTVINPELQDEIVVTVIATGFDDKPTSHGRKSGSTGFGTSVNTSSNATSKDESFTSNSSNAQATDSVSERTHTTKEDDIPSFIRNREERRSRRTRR

| SMILES | MIC (Bacillus subtilis) [µg/mL] | Activity [1] [µg/mL] | MIC (Staphylococcus aureus [2]) [µg/mL] | further results |
| --- | --- | --- | --- | --- |
| CNc1cccc(C(N)=O)c1 | > 4000 | – | – | – |
| NC(=O)c1cccc(OC(F)(F)F)c1 | > 4000 | – | – | – |
| CCCOc1cccc(C(N)=O)c1 | 500 (≈ 2790 µM) | 375 | 256 (≈ 1430 µM) | – |
| O=C(O)c1cn(C2CC2)c2cc(N3CCNCC3)c(F)cc2c1=O [CIPROFLOXACIN] | – | – | 0.5 (≈ 1.51 µM) | – |
| CSc1cccc(C(N)=O)c1 | > 4000 | – | – | – |
| COc1ccc(OC)c(C(N)=O)c1 | > 4000 | – | – | – |
| COc1cccc(C(N)=O)c1C | > 4000 | – | – | – |
| Cc1cccc(C(N)=O)c1 | > 2000 | – | – | – |
| CCOc1cccc(C(N)=O)c1 | 2000 (≈ 12100 µM) | 500 | 1020 (≈ 6200 µM) | – |
| COc1cc(C(N)=O)ccc1F | > 4000 | – | – | – |
| CCCCCCCCCCOc1cccc(C(N)=O)c1 | 1 (≈ 3.6 µM) | 0.5 | 64 (≈ 231 µM) | – |
| COc1ccc(C(N)=O)cc1 | > 4000 | – | – | – |
| CCCCCCOc1cccc(C(N)=O)c1 | 16 (≈ 72.3 µM) | 8 | 16 (≈ 72.3 µM) | MIC (Staphylococcus aureus [3]): 32 µg/mL (≈ 145 µM); MIC (Staphylococcus aureus [4]): > 128 µg/mL; MIC (Staphylococcus aureus [5]): > 128 µg/mL; MIC (Staphylococcus aureus [6]): 32 µg/mL (≈ 145 µM); MIC (Staphylococcus aureus [7]): 32 µg/mL (≈ 145 µM); MIC (Staphylococcus aureus [8]): 16 µg/mL (≈ 72.3 µM); MIC (Staphylococcus aureus [9]): 16 µg/mL (≈ 72.3 µM); MIC (Staphylococcus aureus [10]): 16 µg/mL (≈ 72.3 µM); MIC (Staphylococcus aureus [11]): 16 µg/mL (≈ 72.3 µM); MIC [12]: 32 µg/mL (≈ 145 µM) |
| CCCCCOc1cccc(C(N)=O)c1 | 32 (≈ 154 µM) | 24 | 32 (≈ 154 µM) | – |
| COc1cccc(C(=O)NO)c1 | 4000 (≈ 23900 µM) | – | – | – |
| CCCCCCCCCOc1ccc(F)c(C(N)=O)c1 | 1 (≈ 3.55 µM) | 1 | 8 (≈ 28.4 µM) | Activity [13]: 2 µg/mL |
| NC(=O)c1cccc(O)c1 | > 4000 | 3000 | – | – |
| COc1cccc(C(N)=O)c1OC | > 4000 | – | – | – |
| O=C(N[C@H](CO)[C@H](O)c1ccc([N+](=O)[O-])cc1)C(Cl)Cl [CHLORAMPHENICOL] | – | – | 4 (≈ 12.4 µM) | – |
| COc1cc(OC)cc(C(N)=O)c1 | > 4000 | – | – | – |
| CCCCCCCCOc1cccc(C(N)=O)c1 | 1 (≈ 4.01 µM) | 0.37 | 4 (≈ 16 µM) | – |
| COc1ccc(C(N)=O)cc1OC | > 4000 | – | – | – |
| CCCCCCCCCOc1ccc(Cl)c(C(N)=O)c1F | 0.5 (≈ 1.58 µM) | 0.25 | 1 (≈ 3.17 µM) | Activity [13]: 0.5 µg/mL |
| CCCCCCCCCOc1cccc(C(N)=O)c1 | 0.5 (≈ 1.9 µM) | 0.18 | 2 (≈ 7.59 µM) | MIC (Staphylococcus aureus [3]): 2 µg/mL (≈ 7.59 µM); MIC (Staphylococcus aureus [4]): > 128 µg/mL; MIC (Staphylococcus aureus [5]): > 128 µg/mL |

| SMILES | MIC (Bacillus subtilis) [µg/mL] | Activity [1] [µg/mL] | MIC (Staphylococcus aureus [2]) [µg/mL] | further results |
| --- | --- | --- | --- | --- |
| COc1cccc(C(N)=O)c1[N+](=O)[O-] | > 4000 | – | – | – |
| CCCCCCCCCOc1cccc(C(N)=O)c1F | 0.125 (≈ 0.444 µM) | 0.125 | 0.5 (≈ 1.78 µM) | Activity [13]: 0.5 µg/mL |
| COc1cccc(C(N)=O)c1F | 512 (≈ 3030 µM) | 128 | 512 (≈ 3030 µM) | – |
| COc1ccc(F)c(C(N)=O)c1 | 800 (≈ 4730 µM) | – | – | – |
| CCCCCCCCCCCCOc1cccc(C(N)=O)c1 | – | > 128 | > 256 | – |
| CCCCCCCCCCCOc1cccc(C(N)=O)c1 | 4 (≈ 13.7 µM) | 1 | > 256 | – |
| COc1cccc(C(N)=S)c1 | 2000 (≈ 12000 µM) | – | – | – |
| COc1cccc(C(=O)O)c1 | > 4000 | – | – | – |
| COc1ccc(Cl)c(C(N)=O)c1F | 1020 (≈ 5030 µM) | 256 | – | – |
| CNC(=O)c1cccc(OC)c1 | > 4000 | – | – | – |
| COc1ccc(F)c(C(N)=O)c1F | 512 (≈ 2740 µM) | 256 | 512 (≈ 2740 µM) | – |
| COc1cccc(C(N)=O)c1 | 4000 (≈ 26500 µM) | 500 | 2050 (≈ 13500 µM) | MIC (Staphylococcus aureus [3]): 4000 µg/mL (≈ 26500 µM); MIC (Staphylococcus aureus [4]): > 8000 µg/mL; MIC (Staphylococcus aureus [5]): > 8000 µg/mL; MIC (Staphylococcus aureus [6]): 4100 µg/mL (≈ 27100 µM); MIC (Staphylococcus aureus [7]): 4100 µg/mL (≈ 27100 µM); MIC (Staphylococcus aureus [8]): 4100 µg/mL (≈ 27100 µM); MIC (Staphylococcus aureus [9]): 2050 µg/mL (≈ 13500 µM); MIC (Staphylococcus aureus [10]): 4100 µg/mL (≈ 27100 µM); MIC (Staphylococcus aureus [11]): 2050 µg/mL (≈ 13500 µM); MIC [12]: 4100 µg/mL (≈ 27100 µM) |
| COc1cccc(CC(N)=O)c1 | > 4000 | – | – | – |
| CCCCCCCOc1cccc(C(N)=O)c1 | 4 (≈ 17 µM) | 1.5 | 8 (≈ 34 µM) | – |
| CCCCOc1cccc(C(N)=O)c1 | 128 (≈ 662 µM) | 24 | 128 (≈ 662 µM) | – |
| COc1cc(C(N)=O)ccc1[N+](=O)[O-] | > 4000 | – | – | – |
| COc1ccc(F)c(C(N)=O)c1Cl | > 4000 | 2050 | – | – |
| COc1ccc([N+](=O)[O-])c(C(N)=O)c1 | > 4000 | – | – | – |
| CC(=O)O[C@H]1C[C@@]2(C)[C@@H](C[C@@H](O)[C@H]3[C@@]4(C)CC[C@@H](O)[C@@H](C)[C@@H]4CC[C@@]32C)/C1=C(\CCC=C(C)C)C(=O)O [FUSIDIC ACID] | – | – | 0.06 (≈ 0.116 µM) | – |
| CCCCCCCCCOc1ccc(F)c(C(N)=O)c1Cl | 0.5 (≈ 1.58 µM) | 0.5 | 2 (≈ 6.33 µM) | Activity [13]: 1 µg/mL |
| COc1cccc(CN)c1 | 250 (≈ 1820 µM) | – | – | – |
| C/C(=C\C(=O)OCCCCCCCCC(=O)O)C[C@@H]1OC[C@H](C[C@@H]2O[C@H]2[C@@H](C)[C@H](C)O)[C@@H](O)[C@H]1O [MUPIROCIN] | – | – | 0.12 (≈ 0.24 µM) | – |
| CCCCCCCCCOc1ccc(F)c(C(N)=O)c1F | 0.125 (≈ 0.418 µM) | 0.125 | 0.5 (≈ 1.67 µM) | Activity [13]: 0.25 µg/mL |
